Assay results published in PubChem BioAssay AID1918930 (Molecular Pharmacology Branch, DTP, NCI, 2023).
Values joined by “and” are separate entries in the source; they are usually repeats but may differ in a detail not shown here. Equal values may be shown once.

Tested on: 233499-124-R-J3-PDC complex spheroid viability, % test/control
Assay: Anticancer human tumor 233499-124-R-J3-PDC patient-derived colon adenocarcinoma cell line growth inhibition
Conditions: for viability, T/C: stronger effect = lower value
Procedure, shortened: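 Multicellular complex spheroids of tumor cells with human endothelial cells (HUVEC) and mesenchymal stem cells; the LSD1 inhibitor iadademstat was combined with standard-of-care or investigational agents. Top concentration at or near clinical Cmax, half-log dilutions; final DMSO ≤0.25%.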

[1] = curve of first compound, second compound 0.1 µM
[2] = curve of first compound, second compound 0.316 µM
[3] = curve of first compound, second compound 1 µM
[4] = curve of first compound, second compound 3.16 µM
[5] = curve of first compound, second compound 10 µM
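Note: spheroids exposed to agents for one week before readout.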

In the case of `CCN(c1cc(-c2ccc(CN3CCOCC3)cc2)cc(C(=O)NCc2c(C)cc(C)[nH]c2=O)c1C)C1CCOCC1` + NC1CC1c1ccc(-c2cccc(O)c2)cc1, the IC50 [1] is reported as greater than 3000 nM, the IC50 [2] is reported as greater than 3000 nM and the IC50 [3] is reported as 2500 nM. The IC50 [4] was greater than 3000 nM, the IC50 [5] was 1860 nM and the viability, T/C (second compound 0.1 µM, first compound 0.00949 µM) was 97.3%. It also gave a viability, T/C (second compound 0.1 µM, first compound 0.03 µM) of 99.1%, a viability, T/C (second compound 0.1 µM, first compound 0.0949 µM) of 111% and a viability, T/C (second compound 0.1 µM, first compound 0.3 µM) of 115%. The viability, T/C (second compound 0.1 µM, first compound 0.949 µM) was 98.4%, the viability, T/C (second compound 0.1 µM, first compound 3 µM) was 51.8% and the viability, T/C (second compound 0.316 µM, first compound 0.00949 µM) was 117%. For the same compound, the viability, T/C (second compound 0.316 µM, first compound 0.03 µM) was 124%, the viability, T/C (second compound 0.316 µM, first compound 0.0949 µM) was 112% and the viability, T/C (second compound 0.316 µM, first compound 0.3 µM) was 129%. It also gave a viability, T/C (second compound 0.316 µM, first compound 0.949 µM) of 98.5%, a viability, T/C (second compound 0.316 µM, first compound 3 µM) of 50.8% and a viability, T/C (second compound 1 µM, first compound 0.00949 µM) of 97%. The viability, T/C (second compound 1 µM, first compound 0.03 µM) was 99.7%, the viability, T/C (second compound 1 µM, first compound 0.0949 µM) was 93.7% and the viability, T/C (second compound 1 µM, first compound 0.3 µM) was 107%. The viability, T/C (second compound 1 µM, first compound 0.949 µM) was 85%, the viability, T/C (second compound 1 µM, first compound 3 µM) was 43.4% and the viability, T/C (second compound 3.16 µM, first compound 0.00949 µM) was 99%. The viability, T/C (second compound 3.16 µM, first compound 0.03 µM) was 105%, the viability, T/C (second compound 3.16 µM, first compound 0.0949 µM) was 90.5% and the viability, T/C (second compound 3.16 µM, first compound 0.3 µM) was 80.7%. The viability, T/C (second compound 3.16 µM, first compound 0.949 µM) was 77.2%, the viability, T/C (second compound 3.16 µM, first compound 3 µM) was 53.9% and the viability, T/C (second compound 10 µM, first compound 0.00949 µM) was 79.3%. The viability, T/C (second compound 10 µM, first compound 0.03 µM) was 88.6%, the viability, T/C (second compound 10 µM, first compound 0.0949 µM) was 84.7% and the viability, T/C (second compound 10 µM, first compound 0.3 µM) was 93.2%. It also gave a viability, T/C (second compound 10 µM, first compound 0.949 µM) of 65.8% and a viability, T/C (second compound 10 µM, first compound 3 µM) of 38.8%.
`CCN(c1cc(-c2ccc(CN3CCOCC3)cc2)cc(C(=O)NCc2c(C)cc(C)[nH]c2=O)c1C)C1CCOCC1` was tested, and the viability, T/C (compound 0.00949 µM) was 81.1% and 101%, the viability, T/C (compound 0.03 µM) was 86.2% and 103% and the viability, T/C (compound 0.0949 µM) was 101% and 96%. The viability, T/C (compound 0.3 µM) was 103% and 97.8%, the viability, T/C (compound 0.949 µM) was 110% and 83.4% and the viability, T/C (compound 3 µM) was 99.1% and 52.7%. It also gave an IC50 (curve of compound) greater than 3000 nM.
With `Cn1ncnc1C1c2n[nH]c(=O)c3cc(F)cc(c23)NC1c1ccc(F)cc1` (centres undefined) + NC1CC1c1ccc(-c2cccc(O)c2)cc1 the IC50 [1] was greater than 100 nM, the IC50 [2] was greater than 100 nM and the IC50 [3] was greater than 100 nM. It also gave an IC50 [4] greater than 100 nM, an IC50 [5] greater than 100 nM and a viability, T/C (second compound 0.1 µM, first compound 0.000316 µM) of 106%. For the same compound, the viability, T/C (second compound 0.1 µM, first compound 0.001 µM) was 105%, the viability, T/C (second compound 0.1 µM, first compound 0.00316 µM) was 105% and the viability, T/C (second compound 0.1 µM, first compound 0.01 µM) was 91.2%. For the same compound, the viability, T/C (second compound 0.1 µM, first compound 0.0316 µM) was 95.4%, the viability, T/C (second compound 0.1 µM, first compound 0.1 µM) was 84.4% and the viability, T/C (second compound 0.316 µM, first compound 0.000316 µM) was 89.1%. It also gave a viability, T/C (second compound 0.316 µM, first compound 0.001 µM) of 108%, a viability, T/C (second compound 0.316 µM, first compound 0.00316 µM) of 128% and a viability, T/C (second compound 0.316 µM, first compound 0.01 µM) of 98.1%. The viability, T/C (second compound 0.316 µM, first compound 0.0316 µM) was 102%, the viability, T/C (second compound 0.316 µM, first compound 0.1 µM) was 89.3% and the viability, T/C (second compound 1 µM, first compound 0.000316 µM) was 85.7%. For the same compound, the viability, T/C (second compound 1 µM, first compound 0.001 µM) was 83.1%, the viability, T/C (second compound 1 µM, first compound 0.00316 µM) was 87.5% and the viability, T/C (second compound 1 µM, first compound 0.01 µM) was 74.2%. For the same compound, the viability, T/C (second compound 1 µM, first compound 0.0316 µM) was 89.5%, the viability, T/C (second compound 1 µM, first compound 0.1 µM) was 88.5% and the viability, T/C (second compound 3.16 µM, first compound 0.000316 µM) was 89.9%. The viability, T/C (second compound 3.16 µM, first compound 0.001 µM) was 96%, the viability, T/C (second compound 3.16 µM, first compound 0.00316 µM) was 90.2% and the viability, T/C (second compound 3.16 µM, first compound 0.01 µM) was 76.5%. The viability, T/C (second compound 3.16 µM, first compound 0.0316 µM) was 76.7%, the viability, T/C (second compound 3.16 µM, first compound 0.1 µM) was 78.5% and the viability, T/C (second compound 10 µM, first compound 0.000316 µM) was 74.7%. It also gave a viability, T/C (second compound 10 µM, first compound 0.001 µM) of 80.6%, a viability, T/C (second compound 10 µM, first compound 0.00316 µM) of 69.7% and a viability, T/C (second compound 10 µM, first compound 0.01 µM) of 70.3%. It also gave a viability, T/C (second compound 10 µM, first compound 0.0316 µM) of 58.7% and a viability, T/C (second compound 10 µM, first compound 0.1 µM) of 58.8%.
With `CC(C)CC(NC(=O)CNC(=O)c1cc(Cl)ccc1Cl)B1OC(=O)CC(CC(=O)O)(C(=O)O)O1` (centres undefined) the viability, T/C (compound 0.000316 µM) was 90.6% and 106%, the viability, T/C (compound 0.001 µM) was 89.8% and 95.7% and the viability, T/C (compound 0.00316 µM) was 102% and 78.5%. The viability, T/C (compound 0.01 µM) was 9.9% and 4.05%, the viability, T/C (compound 0.0316 µM) was 7.32% and 0.21% and the viability, T/C (compound 0.1 µM) was 5.06% and 0.23%. For the same compound, the IC50 (curve of compound) was 5.78 nM and 4.92 nM.
